The values below come from patent US4866044A, “Solubilized composition of poorly-soluble pharmaceutical product” (Takeda Chemical Industries, Ltd., priority 1985, dated 1989).

One may read the solubility as how much of the substance goes into solution per volume. Low readings indicate a poorly soluble substance, high ones a readily soluble substance.

The conditions of series [1]: pH 6.
Another series can be described thus: physchem. The note with it: water.

As to alanine, in series [1], the redissolubility result is “O (key: O: dissolved within one minute; Δ: dissolved within one to three minutes)”.

In “physchem”, `CCCCCCCCCCCCCCCCCCNC(=O)OCC(COP(=O)([O-])OCC[n+]1ccsc1)OC` (centres unmarked) [Compound [1], 3-(n-Octadecylcarbamoyloxy)-2-methoxypropyl 2-thiazolioethyl phosphate] came in with a solubility of roughly 100 mg/mL.
